Test results: patent US20240374563A1, “ANTICHOLINERGIC COMPOUNDS FOR USE IN TREATING NEUROMUSCULAR DISORDERS” (UNIVERSITY OF MONTRÉAL, priority 2022, published 2024)

How the values were obtained:
SOD1^G37R mice [1] = experiment: EDL contractile force with muscle force transducer (force-frequency curve, contractile capacity ratio); format: in vivo, mouse
From the text: To investigate this, we used a musde force transducer to measure the force generated by EDL muscles elicited by stimulation of the motor nerve and/or by the direct muscle stimulation (FIG. 5A). With this system, stimulation of the motor nerve at various frequencies elicits muscle contraction through NMJ efficacy, reflecting the strength of contractile fibers associated with innervated NMJs only. Muscle stimulation, on the contrary, depolarizes all muscle fibers and reflect maximal twitch force of all the muscle, independent of the innervation status.
These values represent respectively 55% and 30% of the WT mean twitch force value (FIG. 5B; Dari N=8, Placebo N=8; p<0.01, Repeated Two-way ANOVA). Contractile forces generated differed between the two groups from 70 Hz to 300 Hz (FIG. 5B; Dari N=8, Placebo N=8; p<0.05, Two-way ANOVA, Bonferroni post hoc test). […] This is indicative of the preservation of the fast-twitch properties of the EDL (FIG. 5C; Dari N=8, Placebo N=8; p<0.05 et p<0.01, unpaired t-tests at each frequency).
We next determined the proportion of the muscle capacity that is used by the neuromuscular system upon nerve stimulation. This was expressed as the contractile capacity ratio calculated as follow: […]
The EDL and SOL nerve-muscle preparations were attached vertically to a fixed force transducer (model 402 A-500 mN, Aurora Scientific Inc.) using surgical threads. The preparations were attached at the tendons level to the transducer at one extremity and to an adaptable hook at the opposite extremity. A platinum reference electrode was then juxtaposed ot the muscle, positioned near an extremity of the muscle, close to a tendon. To stimulate the muscle, a second platinum electrode was juxtaposed at the other extremity of the muscle. To elicit muscle contractions from motor nerve and neuromuscular activity, the tibial nerve (SOL) or the deep peroneal nerve (EDL) motor nerve was suctioned into an electrode made of PE tubing and filled with Ringer's solution. […] Neuromuscular contractile basal force responses were elicited by a single supra-maximal square-wave of 500 mV, 0.1 ms pulse imposed on the motor nerve. Muscle contractile basal force responses were elicited by square pulse stimulation of 15 V, 1 ms. Optimal muscle length was determined by gradually stretching the muscle until maximal contractile force output was attained.
Force-frequency curve: Nerve and muscle stimulations were performed to generate a standard force-frequency curve. Alternate nerve and muscle stimulations were performed at various frequencies (5 Hz, 10 Hz, 20 Hz, 30 Hz, 40 Hz, 50 Hz, 60 Hz, 70 Hz, 80 Hz, 90 Hz, 100 Hz, 120 Hz, 140 Hz, 160 Hz, 180 Hz, 200 Hz, 250 Hz and 300 Hz) and the force generated monitored. There was a 2-minute rest period between each stimulation.

SOD1^G37R mice [2] = experiment: EDL muscle weight; format: in vivo, mouse
PSC purinergic receptors = experiment: Calcium imaging of PSCs: Ca2+ responses to local ATP application; format: in vivo, SOD1^G37R mice
[3] = Darifenacin level in blood; format: in vivo; conditions: SOD1 mice after oral treatment; levels consistent with pre-clinical data; data not shown
Experimental: We opted for the dosage at 10 mg/kg since the primary goal is to restore PSCs activity by dampening their muscarinic activity close to WT levels. […] These were both essential steps to pursue the study.

SOD1^G37R mice [4] = experiment: EDL muscle fatigue protocol and 30 min recovery; format: in vivo, mouse
Experimental: In addition to the force generated, a muscle is also characterised by its resistance to fatigue. For instance, fast-twitch muscles composed of a majority of fast fatigable motor units like the EDL, is their great fatigability. In ALS, alteration at the type of innervation (from fast to slow twitch) and in the properties of muscles themselves alter the fatigue properties, rendering them more resistant. […] We used a fatigue stimulation protocol, followed by a 30 min recovery period (FIG. 6A). […] However, we found no difference in the rate of fatigue of muscle contractions generated by motor nerve stimulation (FIG. 6C; Dari N=8, Placebo N=8; p>0.05, Repeated two-way ANOVA). […] There was no difference in the rate of recovery following the fatigue protocol between the darifenacin-treated mice and the placebo-treated ones (FIG. 6B-C; Dari N=8, Placebo N=8; p>0.05, Repeated two-way ANOVA).
Finally, we investigated the fatigue properties of the EDL muscle following darifenacin pre-onset treatment. As mentioned earlier, fast-twitch muscles like the EDL are very strong but are normally highly fatigable. However, in ALS, a gradual resistance to fatigue of fast-twitch muscles have been unraveled, following progression of disease pathogenesis. We used a fatigue stimulation protocol (180 trains at 120 Hz-300 ms), followed by a 30 min recovery period (see FIG. 6A) to investigate treatment impact on EDL fatigue properties. […] The strong resistance of the muscle to fatigue probably reflected the high rate of denervation of the EDL muscle at the symptomatic stage in both darifenacin-and placebo-treated mice.
Muscle fatigue: The fatigue protocol is illustrated in FIG. 6A. The fatigue protocol was adapted to each muscle owing to the differences in their intrinsic properties. For the EDL, fatigue was tested using a bout of 180 nerve stimulations for a duration of 300 ms, elicited at a frequency of 120 Hz. The rest period between each stimulation was 700 ms, for a total protocol duration of 3 min. Muscular stimulations were super-imposed to nerve stimulations every 10 stimulations (18 simultaneous nerve-muscle stimulations), to evaluate muscular reserve. The fatigue protocol for the SOL consisted of a bout of 300 nerve stimulations for 500 ms at 50 Hz, with a rest period of 600 ms between stimulations, for a total duration of 5 min 30. Muscular stimulations were super-imposed to nerve stimulations every 10 stimulations (30 simultaneous nerve-muscle stimulations).
Each fatigue protocol was followed by a 30 min recovery period during which muscular and neuromuscular contractile force were measured at the following latencies (after the end of the fatigue protocol): 5 s, 10 s, 15 s, 30 s, 45 sec, 1 min, 1.5 min, 2 min, 2.5 min, 5 min, 10 min, 20 min and 30 min.

[5] = pre-onset treatment P400 until P520

NC(=O)C(c1ccccc1)(c1ccccc1)[C@@H]1CCN(CCc2ccc3c(c2)CCO3)C1 [darifenacin]
peak EDL muscle force, nerve or muscle stimulation, vs placebo (SOD1^G37R mice [1]; 5 Hz-300 Hz, pre-onset treatment P400 until P520, N=4): no difference | EDL twitch force, nerve stimulation (SOD1^G37R mice [1]; force-frequency protocol 5 Hz-300 Hz, treatment from disease onset, N=8): 138.0±9.1 mN | EDL twitch force as % of the WT mean twitch force value (SOD1^G37R mice [1]; nerve stimulation, treatment from disease onset): 55% | animals discarded for early onset of forelimb paralysis, final stage at P490 (SOD1^G37R mice [1]; pre-onset treatment from P400): two | EDL muscle weight (SOD1^G37R mice [2]; pre-onset treatment P400 until P520, N=4, n=7): 9.1 ± 0.55 mg | EDL muscle weight (SOD1^G37R mice [2]; treatment from disease onset, N=8, n=16): 11.79 ± 0.34 mg | PSC Ca2+ response to ATP, Darifenacin vs DMSO vs non-treated wild type (PSC purinergic receptors; SOD1G37R mice, 10 mg/kg orally for 5 days): no difference | effect on purinergic signaling of PSCs (Ca2+ responses to local ATP) (PSC purinergic receptors; SOD1 mice, 10 or 15 mg/kg for 30 days): no effect | darifenacin in the blood [3]: detected in the blood | rate of fatigue generated by muscle stimulation vs placebo (SOD1^G37R mice [4]; [5]): no difference | rate of recovery following the fatigue protocol vs placebo (SOD1^G37R mice [4]; [5]): comparable | rate of fatigue of contractions generated by motor nerve stimulation vs placebo (SOD1^G37R mice [4]; treatment from disease onset): no difference | rate of recovery following the fatigue protocol vs placebo (SOD1^G37R mice [4]; treatment from disease onset): no difference | EDL fatigue on direct muscle stimulation (SOD1^G37R mice [4]; treatment from disease onset, p<0.01 vs placebo): more typical for this type of fast twitch muscle
